Measured values taken from publication PMC10706804, “Synthesis and Characterization of a New Class of Chromene-Azo Sulfonamide Hybrids as Promising Anticancer Candidates with the Exploration of Their EGFR, hCAII, and MMP-2 Inhibitors Based on Molecular Docking Assays” (International Journal of Molecular Sciences, 2023).
Where “and” joins values, the source holds several entries; their conditions need not be identical. Identical values can stand only once.

Assays:
[1] = system: human liver carcinoma (HepG-2); assay: MTT cytotoxicity, HepG-2; format: cell-based
Excerpt: (§1) Three human tumorous cell lines—human colon carcinoma (HCT-116), human liver carcinoma (HepG-2), and human breast adenocarcinoma (MCF-7)—were subjected to cytotoxic behavior, employing the MTT analysis. Moreover, a normotoxicity assessment was employed against normal Vero cell line (African Green Monkey Kidney cells) for selected active compounds to determine their therapeutic safety. […] The inhibitory performance of derivatives 1a–e, 2a–e, 7a–g, 8, and 11a–e, and its derived relation to the cell proliferation of these three cancers, are described in Table 1 and Figure 2. […] Characteristically, the inhibitory activity was enhanced via incorporating the azo moieties in compounds 2a–b.
(§2) The cytotoxic activity was appraised using the 3-(4,5-dimethylthiazol-2-yl)-2,5-diphenyl-tetrazolium bromide (MTT) colorimetric assay as reported previously.

[2] = system: human breast adenocarcinoma (MCF-7); assay: MTT cytotoxicity, MCF-7; format: cell-based
Excerpt: as §1, §2

[3] = system: human colon carcinoma (HCT-116); assay: MTT cytotoxicity, HCT-116; format: cell-based; conditions: HCT-116 cells
Excerpt: as §1, §2

EGFR = target: T1, EGFR (Homo sapiens, UniProt P00533); assay: EGFR kinase assay kit inhibition; format: biochemical
T1 construct: purchased BPS Bioscience 40321
Experimental: After ADP is converted into ATP, ATP can be used as the substrate of the luciferase-catalyzed reaction to generate an optical signal, which is positively correlated with kinase activity. […] The plate was incubated at 30 °C for 40 min.

cytosolic hCA II = target: T2, cytosolic hCA II (Bos taurus, UniProt P00921); assay: CA-II inhibition assay (esterase activity, 4-NPA); format: biochemical, bovine; conditions: reduction in esterase activity, 4-NPA substrate; read-out: IC50 against hCA II
T2 construct: purchased Sigma–Aldrich C2624
Experimental: The CA-II inhibition assay for the analyzed molecules was performed based on the measurement of the reduction in esterase activity on the substrate p-nitrophenyl acetate (4-NPA). Briefly, the total mixture volume was 200 µL in a well containing 140 µL (20 mM HEPES) Tris buffer (pH 7.4), 20 µL of the enzyme (from bovine, Sigma–Aldrich, C2624, St. Louis, MO, USA), and 20 µL (0.5 mg/mL in DMSO) of the investigated derivatives, which were mixed and incubated at 25 °C for 15 min. […] The results, attained after the reactions were completed in triplicate, were quantified by the equation given below. The percent inhibition for each sample was calculated as Inhibition (%) = [(C − T)/C] × 100, where C (i.e., control) = total enzyme activity without inhibitor and T (i.e., test sample) = activity in the presence of test compound.

MMP-2 = target: T3, MMP-2 (Homo sapiens, UniProt P08253); assay: MMP-2 Inhibitor Screening Assay Kit (colorimetric); conditions: for IC50: IC50 on MMP-2, MMP-2 inhibitor screening kit; for anti-MMP-2 inhibition at the first concentration: first concentration of two-fold serial dilutions
T3 sequence (P08253 110-660): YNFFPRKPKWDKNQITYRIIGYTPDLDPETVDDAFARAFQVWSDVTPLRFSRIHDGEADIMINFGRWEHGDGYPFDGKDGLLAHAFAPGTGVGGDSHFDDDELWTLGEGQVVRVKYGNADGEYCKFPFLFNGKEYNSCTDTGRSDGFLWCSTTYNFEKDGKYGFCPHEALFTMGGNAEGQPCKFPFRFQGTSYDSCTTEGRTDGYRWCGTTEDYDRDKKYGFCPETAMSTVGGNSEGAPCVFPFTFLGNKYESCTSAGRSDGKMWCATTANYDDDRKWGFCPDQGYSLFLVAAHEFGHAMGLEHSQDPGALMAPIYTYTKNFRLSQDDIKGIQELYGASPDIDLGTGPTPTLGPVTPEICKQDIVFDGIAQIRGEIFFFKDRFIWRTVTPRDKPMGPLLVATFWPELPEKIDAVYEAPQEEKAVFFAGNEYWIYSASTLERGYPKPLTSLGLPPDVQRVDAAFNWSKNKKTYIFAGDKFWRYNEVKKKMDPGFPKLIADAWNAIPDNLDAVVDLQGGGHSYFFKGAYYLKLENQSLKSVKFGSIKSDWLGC

[4] = system: normal Vero cell line (Vero CCL-81); assay: Normotoxicity assessment, normal Vero cell line; format: cell-based, African Green Monkey; conditions: Chlorocebus sabaeus; normal Vero CCL-81 cells, cytotoxicity
Excerpt: as §1, §2

[5] = Homo sapiens, HepG2, HepG-2 cells
[6] = Homo sapiens, MCF7, MCF-7 cells

T2 sequence (P00921 whole entry): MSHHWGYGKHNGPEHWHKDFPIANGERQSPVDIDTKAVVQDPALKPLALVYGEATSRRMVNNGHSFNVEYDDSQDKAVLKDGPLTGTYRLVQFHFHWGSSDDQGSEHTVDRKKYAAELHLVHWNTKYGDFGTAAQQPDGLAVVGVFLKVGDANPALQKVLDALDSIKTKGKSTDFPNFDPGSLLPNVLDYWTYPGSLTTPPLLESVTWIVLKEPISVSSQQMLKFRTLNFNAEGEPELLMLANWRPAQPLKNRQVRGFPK
T1 sequence (P00533 25-1210): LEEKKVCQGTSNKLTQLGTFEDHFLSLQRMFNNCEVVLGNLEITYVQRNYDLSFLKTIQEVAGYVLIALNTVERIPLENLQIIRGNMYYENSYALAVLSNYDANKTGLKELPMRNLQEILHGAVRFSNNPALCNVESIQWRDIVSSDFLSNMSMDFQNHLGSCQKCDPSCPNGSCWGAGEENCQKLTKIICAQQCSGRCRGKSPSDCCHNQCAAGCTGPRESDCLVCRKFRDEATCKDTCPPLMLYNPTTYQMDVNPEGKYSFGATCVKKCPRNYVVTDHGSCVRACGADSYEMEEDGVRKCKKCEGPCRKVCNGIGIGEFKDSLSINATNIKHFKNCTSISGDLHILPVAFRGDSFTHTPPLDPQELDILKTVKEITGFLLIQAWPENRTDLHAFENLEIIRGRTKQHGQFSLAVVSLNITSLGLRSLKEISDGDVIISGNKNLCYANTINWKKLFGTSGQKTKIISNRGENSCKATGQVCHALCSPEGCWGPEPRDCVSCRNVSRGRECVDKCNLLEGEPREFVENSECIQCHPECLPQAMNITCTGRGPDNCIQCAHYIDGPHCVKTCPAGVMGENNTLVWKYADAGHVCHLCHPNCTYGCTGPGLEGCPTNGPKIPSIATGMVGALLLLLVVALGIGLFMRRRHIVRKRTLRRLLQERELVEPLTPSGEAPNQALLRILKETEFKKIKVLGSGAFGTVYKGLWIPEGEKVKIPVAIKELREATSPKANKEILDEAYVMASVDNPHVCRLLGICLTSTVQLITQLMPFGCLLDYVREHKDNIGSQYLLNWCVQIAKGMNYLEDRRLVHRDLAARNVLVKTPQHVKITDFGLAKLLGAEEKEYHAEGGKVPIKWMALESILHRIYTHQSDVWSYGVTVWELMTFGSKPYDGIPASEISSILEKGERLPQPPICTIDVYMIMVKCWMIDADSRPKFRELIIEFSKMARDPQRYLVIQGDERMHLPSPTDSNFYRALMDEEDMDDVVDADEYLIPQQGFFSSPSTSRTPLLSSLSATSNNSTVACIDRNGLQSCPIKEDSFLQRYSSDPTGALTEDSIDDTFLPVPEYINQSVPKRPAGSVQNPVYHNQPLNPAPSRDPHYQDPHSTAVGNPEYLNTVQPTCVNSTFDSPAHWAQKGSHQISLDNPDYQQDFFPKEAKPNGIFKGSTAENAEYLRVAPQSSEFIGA

IC50 (EGFR) [µM] | IC50 (cytosolic hCA II) [µM] | IC50 (MMP-2) | anti-MMP-2 inhibition at the first concentration (MMP-2) | Structure (SMILES) | IC50 [1, 5] [µM] | IC50 [2, 6] [µM] | IC50 ([3]; Homo sapiens) [µM] | IC50 ([1]; HepG-2 cells) [µM] | IC50 (µM) HCT-116 [3] | IC50 [4] [µM] | IC50 ([2]; MCF-7 cells) [µM] | IC50 [3] [µM]
23.4 | 301 | ~113 µM and 113 µM | ~73.89% | CCOC(=O)C1=C(N)Oc2cc(O)c(/N=N/c3ccc(S(N)(=O)=O)cc3)cc2C1c1ccccc1 (centres unmarked) [7a] | 3.92 ± 0.09 | 13.05 ± 0.12 | 6.82 ± 0.19 |  |  |  |  | 
 | 711 |  |  | CCOC(=O)C1=C(N)Oc2cc(O)c(/N=N/c3ccc(S(N)(=O)=O)cc3)cc2C1c1ccc(C)cc1 (centres unmarked) [7b] | 51.9 | 29.5 ± 3.29 | 17.3 ± 4.29 | 45.7 ± 2.88 |  |  |  | 
 |  |  |  | CCOC(=O)C1=C(N)Oc2cc(O)c(/N=N/c3ccc(S(N)(=O)=O)cc3)cc2C1c1ccc(OC)cc1 (centres unmarked) [7c] | 34.9 | 104 ± 2.65 | 70.8 ± 1.85 | 51.8 ± 1.02 |  |  |  | 
 |  |  |  | CCOC(=O)C1=C(N)Oc2cc(O)c(/N=N/c3ccc(S(N)(=O)=O)cc3)cc2C1c1ccc([N+](=O)[O-])cc1 (centres unmarked) [7d] | 45.9 | 97.9 ± 3.08 | 114 ± 5.34 | 34.9 ± 2.79 |  |  |  | 
 |  |  |  | CCOC(=O)C1=C(N)Oc2cc(O)c(/N=N/c3ccc(S(N)(=O)=O)cc3)cc2C1c1ccc(F)cc1 (centres unmarked) [7e] | 2.92 ± 3.52 | 6.15 ± 1.23 | 8 ± 3.45 |  |  |  |  | 
12.7 | 164 | ~64.8 µM and 64.8 µM | approximately 80.93% | CCOC(=O)C1=C(N)Oc2cc(O)c(/N=N/c3ccc(S(N)(=O)=O)cc3)cc2C1c1ccc(Cl)cc1 (centres unmarked) [7f] | 1.63 | 3.93 ± 0.09 | 3.57 ± 0.11 | 1.74 ± 0.07 | good potency |  |  | 
 | 314 |  |  | CCOC(=O)C1=C(N)Oc2cc(O)c(/N=N/c3ccc(S(N)(=O)=O)cc3)cc2C1c1ccc(Cl)cc1Cl (centres unmarked) [7g] | 1.74 | 1.72 ± 2.5 | 1.74 ± 4.06 | 1.63 ± 2.36 | good potency |  |  | 
 |  |  |  | CCOC(=O)C1=C(N/C(=C(/C#N)C(=O)OCC)c2ccc(C)cc2)Oc2cc(O)c(/N=N/c3ccc(S(N)(=O)=O)cc3)cc2C1c1ccc(C)cc1 (centres unmarked) [11a] | 32.2 ± 1.79 | 20.8 ± 1.38 | 12.2 ± 0.96 |  |  | 139 ± 5.26 |  | 
 |  |  |  | CCOC(=O)C1=C(N/C(=C(/C#N)C(=O)OCC)c2ccc(C)cc2)Oc2cc(O)c(/N=N/c3ccc(S(=O)(=O)NC(C)=O)cc3)cc2C1c1ccc(C)cc1 (centres unmarked) [11b] | 147 ± 6.41 | 66 ± 3.91 | 39.3 ± 2.63 |  |  |  |  | 
 |  |  |  | CCOC(=O)C1=C(N/C(=C(/C#N)C(=O)OCC)c2ccc(C)cc2)Oc2cc(O)c(/N=N/c3ccc(S(=O)(=O)NC(=N)N)cc3)cc2C1c1ccc(C)cc1 (centres unmarked) [11c] | 73.8 ± 2.89 | 105 ± 5.78 | 79.5 ± 3.65 |  |  | 328 ± 8.26 |  | 
 | 267 |  |  | CCOC(=O)C1=C(N/C(=C(/C#N)C(=O)OCC)c2ccc(C)cc2)Oc2cc(O)c(/N=N/c3ccc(S(=O)(=O)Nc4nccs4)cc3)cc2C1c1ccc(C)cc1 (centres unmarked) [11d] | 4.71 ± 0.47 | 9.13 ± 0.93 | 6.32 ± 0.68 |  |  | 278 ± 6.45 |  | 
 |  |  |  | CCOC(=O)C1=C(N/C(=C(/C#N)C(=O)OCC)c2ccc(C)cc2)Oc2cc(O)c(/N=N/c3ccc(S(=O)(=O)Nc4cc(C)no4)cc3)cc2C1c1ccc(C)cc1 (centres unmarked) [11e] | 17.3 ± 1.06 | 23.6 ± 2.05 | 18.4 ± 1.19 |  |  | 162 ± 6.48 |  | 
 |  |  |  | N.N.[Cl][Pt][Cl] [Cisplatin, reference compound] |  |  |  | 10.9 ± 0.19 |  |  | 14.66 ± 0.03 | 8.36 ± 0.07
 |  |  |  | COc1cccc2c1C(=O)c1c(O)c3c(c(O)c1C2=O)C[C@@](O)(C(=O)CO)C[C@@H]3O[C@H]1C[C@H](N)[C@H](O)[C@H](C)O1 [Doxorubicin, reference compound] | 0.66 ± 0.02 | 0.64 ± 0.03 | 0.9 ± 0.07 |  |  |  |  | 
 |  | ~12.3 µM and 12.3 µM |  | CNC(=O)c1cc(Oc2ccc(NC(=O)Nc3ccc(Cl)c(C(F)(F)F)c3)cc2)ccn1 [Sorafenib, reference compound] |  |  |  |  |  |  |  | 
